Test results reported in patent US12421253B2 (Mirati Therapeutics, Inc., priority 2020, dated 2025).

Experiments:
[1] = target: T1, KRas^G12D (Homo sapiens, UniProt P01116, G12D); assay: KRas binding assay (TR-FRET displacement of Cy5 labelled tracer)
T1 construct: […]; biotin (biotinylated); purchased Accelegan Inc

[2] = target: T2, KRas^G12A (Homo sapiens, UniProt P01116, G12A); assay: as above
T2 construct: […]; biotin (biotinylated); purchased Accelegan Inc

[3] = target: KRas^Q61H (Homo sapiens, UniProt P01116, Q61H); assay: biochemical
KRas^Q61H, sequence (P01116 1-169 isoform P01116-2 Q61H): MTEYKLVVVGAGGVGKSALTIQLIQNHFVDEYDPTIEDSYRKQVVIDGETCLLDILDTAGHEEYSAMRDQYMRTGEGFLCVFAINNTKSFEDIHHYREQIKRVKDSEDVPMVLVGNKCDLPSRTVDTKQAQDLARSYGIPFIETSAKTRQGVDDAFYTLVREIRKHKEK

[4] = target: KRas^G12C (Homo sapiens, UniProt P01116, G12C); assay: biochemical
KRas^G12C, sequence (P01116 1-169 isoform P01116-2 G12C): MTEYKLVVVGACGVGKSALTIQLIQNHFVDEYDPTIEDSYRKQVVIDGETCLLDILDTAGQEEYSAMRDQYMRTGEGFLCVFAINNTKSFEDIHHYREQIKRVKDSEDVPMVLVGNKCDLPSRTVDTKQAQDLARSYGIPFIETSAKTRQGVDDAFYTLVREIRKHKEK

[5] = target: T3, KRas^WT (Homo sapiens, UniProt P01116); assay: KRas binding assay (TR-FRET displacement of Cy5 labelled tracer)
T3 construct: […]; biotin (biotinylated); purchased Accelegan Inc
T3 sequence (P01116 1-169 isoform P01116-2): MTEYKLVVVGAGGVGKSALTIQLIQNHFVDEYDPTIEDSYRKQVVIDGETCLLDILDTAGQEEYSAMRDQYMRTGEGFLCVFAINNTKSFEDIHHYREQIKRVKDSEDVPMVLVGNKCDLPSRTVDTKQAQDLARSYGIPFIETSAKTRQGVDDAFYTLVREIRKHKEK

[6] = target: T4, KRas^G12V (Homo sapiens, UniProt P01116, G12V); assay: as above
T4 construct: […]; biotin (biotinylated); purchased Accelegan Inc
T4 sequence (P01116 1-169 isoform P01116-2 G12V): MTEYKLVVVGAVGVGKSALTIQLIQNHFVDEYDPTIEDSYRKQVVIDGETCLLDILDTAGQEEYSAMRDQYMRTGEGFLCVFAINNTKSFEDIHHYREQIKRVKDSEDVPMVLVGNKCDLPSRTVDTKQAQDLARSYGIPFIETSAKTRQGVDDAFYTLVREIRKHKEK

[7] = target: T5, KRas^G12S (Homo sapiens, UniProt P01116, G12S); assay: as above
T5 construct: […]; biotin (biotinylated); purchased Accelegan Inc
T5 sequence (P01116 1-169 isoform P01116-2 G12S): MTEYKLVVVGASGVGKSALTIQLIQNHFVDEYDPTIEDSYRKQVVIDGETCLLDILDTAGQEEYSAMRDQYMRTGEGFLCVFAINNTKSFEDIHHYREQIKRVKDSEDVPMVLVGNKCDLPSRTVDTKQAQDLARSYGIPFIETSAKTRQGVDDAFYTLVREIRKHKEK

[8] = target: KRas^G13D (Homo sapiens, UniProt P01116, G13D); assay: biochemical
KRas^G13D, sequence (P01116 1-169 isoform P01116-2 G13D): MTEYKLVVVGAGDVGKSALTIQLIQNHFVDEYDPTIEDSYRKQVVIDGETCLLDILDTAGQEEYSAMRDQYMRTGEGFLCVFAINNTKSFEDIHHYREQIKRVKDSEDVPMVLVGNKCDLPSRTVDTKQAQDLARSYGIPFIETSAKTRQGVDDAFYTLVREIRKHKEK

[9] = target: T6, KRas^G12R (Homo sapiens, UniProt P01116, G12R); assay: KRas binding assay (TR-FRET displacement of Cy5 labelled tracer)
T6 construct: […]; biotin (biotinylated); purchased Accelegan Inc
T6 sequence (P01116 1-169 isoform P01116-2 G12R): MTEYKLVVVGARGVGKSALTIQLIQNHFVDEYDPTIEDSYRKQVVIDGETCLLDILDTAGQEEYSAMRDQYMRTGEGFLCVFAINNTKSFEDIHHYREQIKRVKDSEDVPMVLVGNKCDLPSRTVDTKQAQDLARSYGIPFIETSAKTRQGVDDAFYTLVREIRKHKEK

T2 sequence (P01116 1-169 isoform P01116-2 G12A): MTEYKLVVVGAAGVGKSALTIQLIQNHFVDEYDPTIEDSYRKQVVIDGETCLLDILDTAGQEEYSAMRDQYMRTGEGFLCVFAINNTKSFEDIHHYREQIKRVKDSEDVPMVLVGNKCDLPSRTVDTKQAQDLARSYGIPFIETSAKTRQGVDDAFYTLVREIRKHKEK
T1 sequence (P01116 1-169 isoform P01116-2 G12D): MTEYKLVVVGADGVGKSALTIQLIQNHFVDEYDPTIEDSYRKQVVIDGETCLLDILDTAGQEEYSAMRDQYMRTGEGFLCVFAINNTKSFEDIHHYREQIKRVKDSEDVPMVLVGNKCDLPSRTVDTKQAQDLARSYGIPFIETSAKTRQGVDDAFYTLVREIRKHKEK

IC50 [1] [µM] | IC50 [2] [µM] | IC50 [3] [µM] | IC50 [4] [µM] | IC50 [5] [µM] | IC50 [6] [µM] | IC50 [7] [µM] | IC50 [8] [µM] | IC50 [9] [µM] | Compound
22.4 | 1.86 | 4.67 | 4.42 | 3.17 | 7.31 | 3.4 | 4.86 | 4.92 | CCc1cccc2cccc(N3CCc4c(nc(OCC56CCCN5CCC6)nc4NCc4c5c(n[nH]c4=O)CCCC5)C3)c12 [Example 155, 4-(((7-(8-ethylnaphthalen-1-yl)-2-((tetrahydro-1H-pyrrolizin-7a(5H)-yl)methoxy)-5,6,7,8-tetrahydropyrido[3,4-d]pyrimidin-4-yl)amino)methyl)-5,6,7,8-tetrahydrocinnolin-3(2H)-one]
30.9 | 2.69 | 4.58 | 3.47 | 3.65 | 5.41 | 4.72 | 2.7 | 1.61 | CCc1cccc2cccc(N3CCc4c(nc(OCC56CCCN5CCC6)nc4N4CCC(n5ccnn5)CC4)C3)c12 [Example 151, 4-(4-(1H-1,2,3-triazol-1-yl)piperidin-1-yl)-7-(8-ethylnaphthalen-1-yl)-2-((tetrahydro-1H-pyrrolizin-7a(5H)-yl)methoxy)-5,6,7,8-tetrahydropyrido[3,4-d]pyrimidine]
1.8 | 0.88 | 1.49 | 0.652 | 1.95 | 0.948 | 0.917 | 1.57 | 0.558 | CCc1cccc2cccc(N3CCc4c(nc(OCC56CCCN5CCC6)nc4N4CCCC(c5cn(C)nn5)C4)C3)c12 (stereo not drawn) [Example 118, 7-(8-ethylnaphthalen-1-yl)-4-(3-(1-methyl-1H-1,2,3-triazol-4-yl)piperidin-1-yl)-2-((tetrahydro-1H-pyrrolizin-7a(5H)-yl)methoxy)-5,6,7,8-tetrahydropyrido[3,4-d]pyrimidine]
0.843 | 0.464 | 0.523 | 0.418 | 0.509 | 0.45 | 0.601 | 0.654 | 0.756 | CCc1cccc2cccc(N3CCc4c(nc(OCC56CCCN5CCC6)nc4N(C)CC(C)(C)O)C3)c12 [Example 113, 1-((7-(8-ethylnaphthalen-1-yl)-2-((tetrahydro-1H-pyrrolizin-7a(5H)-yl)methoxy)-5,6,7,8-tetrahydropyrido[3,4-d]pyrimidin-4-yl)(methyl)amino)-2-methylpropan-2-ol]
2.72 | 0.548 | 1.15 | 0.741 | 0.894 | 0.937 | 0.854 | 1.18 | 0.397 | CCc1cccc2cccc(N3CCc4c(nc(OCC56CCCN5CCC6)nc4N4CCCC(c5ncn[nH]5)C4)C3)c12 (stereo not drawn) [Example 53, 4-(3-(1H-1,2,4-triazol-5-yl)piperidin-1-yl)-7-(8-ethylnaphthalen-1-yl)-2-((hexahydro-1H-pyrrolizin-7a-yl)methoxy)-5,6,7,8-tetrahydropyrido[3,4-d]pyrimidine]
1.03 | 1.32 | 1.05 | 1.2 | 0.651 | 1.41 | 0.665 | 0.72 | 1.49 | CCc1cccc2cccc(N3CCc4c(nc(OCC56CCCN5CCC6)nc4N4CCCC(S(=O)(=O)NC)C4)C3)c12 (stereo not drawn) [Example 125, 1-(7-(8-ethylnaphthalen-1-yl)-2-((tetrahydro-1H-pyrrolizin-7a(5H)-yl)methoxy)-5,6,7,8-tetrahydropyrido[3,4-d]pyrimidin-4-yl)-N-methylpiperidine-3-sulfonamide]
0.043 | 0.316 | 0.567 | 0.139 | 0.271 | 0.137 | 0.175 | 0.628 | 0.102 | CCc1cccc2cccc(N3CCc4c(nc(OCC56CCCN5CCC6)nc4N4CCCn5nc(CO)cc5C4)C3)c12 [Example 8, (5-(7-(8-ethylnaphthalen-1-yl)-2-((tetrahydro-1H-pyrrolizin-7a(5H)-yl)methoxy)-5,6,7,8-tetrahydropyrido[3,4-d]pyrimidin-4-yl)-5,6,7,8-tetrahydro-4H-pyrazolo[1,5-a][1,4]diazepin-2-yl)methanol]
0.309 | 1.26 | 1.93 | 0.564 | 1.37 | 0.652 | 0.669 | 2.03 | 0.492 | CCc1cccc2cccc(N3CCc4c(nc(OCC56CCCN5CCC6)nc4N4CCCn5nccc5C4)C3)c12 [Example 51, 4-(7,8-dihydro-4H-pyrazolo[1,5-a][1,4]diazepin-5(6H)-yl)-7-(8-ethylnaphthalen-1-yl)-2-((hexahydro-1H-pyrrolizin-7a-yl)methoxy)-5,6,7,8-tetrahydropyrido[3,4-d]pyrimidine]
1.32 | 2.71 | 3.21 | 1.65 | 2.45 | 1.45 | 2.15 | 3.63 | 1.49 | CCc1cccc2cccc(N3CCc4c(nc(OCC56CCCN5CCC6)nc4NC4CN(C(N)=O)C4)C3)c12 [Example 147, 3-((7-(8-ethylnaphthalen-1-yl)-2-((tetrahydro-1H-pyrrolizin-7a(5H)-yl)methoxy)-5,6,7,8-tetrahydropyrido[3,4-d]pyrimidin-4-yl)amino)azetidine-1-carboxamide]
0.465 | 0.317 | 0.703 | 0.273 | 0.579 | 0.184 | 0.364 | 0.662 | 0.167 | CCc1cccc2cccc(N3CCc4c(nc(OCC56CCCN5CCC6)nc4N4CCCCCC4)C3)c12 [Example 49, 4-(azepan-1-yl)-7-(8-ethylnaphthalen-1-yl)-2-((hexahydro-1H-pyrrolizin-7a-yl)methoxy)-5,6,7,8-tetrahydropyrido[3,4-d]pyrimidine]
5.21 | 1.66 | 2.23 | 1.18 | 1.92 | 2.38 | 2 | 1.76 | 1.44 | CCc1cccc2cccc(N3CCc4c(nc(OCC56CCCN5CCC6)nc4N4CCCC(c5nc(C)c(C(=O)NC6CCC6)o5)C4)C3)c12 (stereo not drawn) [Example 140, N-cyclobutyl-2-(1-(7-(8-ethylnaphthalen-1-yl)-2-((tetrahydro-1H-pyrrolizin-7a(5H)-yl)methoxy)-5,6,7,8-tetrahydropyrido[3,4-d]pyrimidin-4-yl)piperidin-3-yl)-4-methyloxazole-5-carboxamide]
4.42 | 1.01 | 1.4 | 0.828 | 1.14 | 2.03 | 1.43 | 1.37 | 0.339 | CCc1cccc2cccc(N3CCc4c(nc(OCC56CCCN5CCC6)nc4N4CCCC(c5ccn(C)n5)C4)C3)c12 (stereo not drawn) [Example 100, 7-(8-ethylnaphthalen-1-yl)-4-(3-(1-methyl-1H-pyrazol-3-yl)piperidin-1-yl)-2-((tetrahydro-1H-pyrrolizin-7a(5H)-yl)methoxy)-5,6,7,8-tetrahydropyrido[3,4-d]pyrimidine]
0.72 | 5.9 | 5.45 | 2.74 | 4.26 | 2.75 | 2.91 | 5.68 | 3.29 | CCc1cccc2cccc(N3CCc4c(nc(OCC56CCCN5CCC6)nc4NC4CC(=O)N(c5cnn(C)c5)C4)C3)c12 (stereo not drawn) [Example 126, 4-((7-(8-ethylnaphthalen-1-yl)-2-((tetrahydro-1H-pyrrolizin-7a(5H)-yl)methoxy)-5,6,7,8-tetrahydropyrido[3,4-d]pyrimidin-4-yl)amino)-1-(1-methyl-1H-pyrazol-4-yl)pyrrolidin-2-one]
5.92 | 2.23 | 1.25 | 1.92 | 2.05 | 4.15 | 2.47 | 1.32 | 2.01 | CCc1cccc2cccc(N3CCc4c(nc(OCC56CCCN5CCC6)nc4N4CCCC(c5n[nH]cc5NC(C)=O)C4)C3)c12 (stereo not drawn) [Example 143, N-(3-(1-(7-(8-ethylnaphthalen-1-yl)-2-((tetrahydro-1H-pyrrolizin-7a(5H)-yl)methoxy)-5,6,7,8-tetrahydropyrido[3,4-d]pyrimidin-4-yl)piperidin-3-yl)-1H-pyrazol-4-yl)acetamide]
0.929 | 0.206 | 0.189 | 0.19 | 0.083 | 0.427 | 0.24 | 0.139 | 0.311 | CCc1cccc2cccc(N3CCc4c(nc(OCC56CCCN5CCC6)nc4N4CCCC(N5CC(C)CS5(=O)=O)C4)C3)c12 (stereo not drawn) [Example 83, 2-(1-(7-(8-ethylnaphthalen-1-yl)-2-((tetrahydro-1H-pyrrolizin-7a(5H)-yl)methoxy)-5,6,7,8-tetrahydropyrido[3,4-d]pyrimidin-4-yl)piperidin-3-yl)-4-methylisothiazolidine 1,1-dioxide]
